Results: US20060019933A1, “Process for preparing stabilized vitamin D” (priority 2004, published 2006)

Key:
vitamin D receptor = target: T1, vitamin D receptor (Homo sapiens, UniProt P11473); details: agonism at the vitamin D receptor without 1α-hydroxylation; cited from earlier work
T1 sequence (P11473 1-427): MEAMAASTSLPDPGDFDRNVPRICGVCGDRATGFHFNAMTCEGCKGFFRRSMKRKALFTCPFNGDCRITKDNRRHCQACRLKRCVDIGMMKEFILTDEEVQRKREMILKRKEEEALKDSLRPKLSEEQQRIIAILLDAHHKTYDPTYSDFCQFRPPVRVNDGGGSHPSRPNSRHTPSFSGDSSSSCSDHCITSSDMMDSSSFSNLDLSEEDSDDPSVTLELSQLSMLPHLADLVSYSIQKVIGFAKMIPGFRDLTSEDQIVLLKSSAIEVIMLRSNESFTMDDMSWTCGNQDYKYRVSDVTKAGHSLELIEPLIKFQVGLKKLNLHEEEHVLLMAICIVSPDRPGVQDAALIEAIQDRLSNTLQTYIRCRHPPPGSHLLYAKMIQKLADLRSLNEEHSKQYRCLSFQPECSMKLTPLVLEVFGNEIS

[1] = Stability of amorphous vitamin D3 cast as a thin film; format: physicochemical
Description: In an additional experiment, vitamin D3 was cast as a thin film by evaporating a solution of vitamin D in ethyl acetate and the stability of this amorphous form of vitamin D was also investigated. […] The results of this and the previous experiment highlight the inherently low stability of vitamin D and the impact of both humidity and physical form (crystalline vs. amorphous) on degradation rates.

[2] = Chemical stability of neat, crystalline vitamin D3 at 40° C. and various humidities; format: physicochemical; details: one week
Procedure: Stability of neat, crystalline vitamin D3 was investigated at 40° C. and 5%, 20%, 50%, 75% relative humidity (% RH) over the course of one week. This experiment was used as a baseline for comparison of vitamin D3 stability after formulation as indicated above. A pronounced dependence of degradation rate upon relative humidity was observed, as depicted in FIG. 1. Under low humidity conditions, loss of active occurred at a rate of 0.58%/day and 0.76%/day at 5% RH and 20% RH, respectively.

| Structure (SMILES) | intrinsic activity, fold lower than that of 1α,25-dihydroxy-cholecalciferol (vitamin D receptor) | degradation after 3 days ([1]; 25° C.) | degradation after 3 days ([1]; 40° C.) | degradation after 3 days ([1]; 40° C./75% RH) | rate of loss of active ([2]; 5% RH) | rate of loss of active ([2]; 20% RH) | degradation rate ([2]; 50% RH) | degradation rate ([2]; 75% RH) |
| --- | --- | --- | --- | --- | --- | --- | --- | --- |
| C=C1CC[C@H](O)C/C1=C/C=C1\CCC[C@]2(C)[C@@H]([C@H](C)CCCC(C)(C)O)CC[C@@H]12 [25-hydroxy-cholecalciferol] | about 100 fold | – | – | – | – | – | – | – |
| C=C1CC[C@H](O)C/C1=C/C=C1\CCC[C@]2(C)[C@@H]([C@H](C)CCCC(C)C)CC[C@@H]12 [vitamin D3, cholecalciferol] | – | Essentially complete degradation | Essentially complete degradation | Essentially complete degradation | 0.58 %/day | 0.76 %/day | 5.5 %/day | 10.8 %/day |
